From PubChem BioAssay AID248 (DTP/NCI, 2004)
Several values for one entry are separate records, joined by “and”; a condition that tells them apart may be missing. Identical values can stand only once. Inconclusive results and toxic doses are left out. Cut-off read from the data, not from the text of the source: active = T/C of 150% or more; inactive = T/C below 125%.

Test system: L1210 leukemia ip in BDF1 mice, survival T/C
Assay: NCI In Vivo Anticancer Drug Screen. Data for tumor model L1210 Leukemia (intraperitoneal) in B6D2F1 (BDF1) mice
Conditions: endpoint: mean survival time, higher = longer survival
How it was run: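 Transplantable tumor model; survival measured in treated vs vehicle control mice. Value = treated/control.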

[1] = dose: 25.0 mg/kg/injection, schedule: Q01DX009 (ip), vehicle: saline
[2] = dose: 50.0 mg/kg/injection, schedule: Q01DX001 (ip), vehicle: saline
[3] = dose: 50.0 mg/kg/injection, schedule: Q01DX009 (ip), vehicle: saline
[4] = dose: 100.0 mg/kg/injection, schedule: Q01DX001 (ip), vehicle: saline
[5] = dose: 100.0 mg/kg/injection, schedule: Q01DX009 (ip), vehicle: saline
[6] = dose: 200.0 mg/kg/injection, schedule: Q01DX001 (ip), vehicle: saline
[7] = dose: 200.0 mg/kg/injection, schedule: Q01DX009 (ip), vehicle: saline
[8] = dose: 400.0 mg/kg/injection, schedule: Q01DX001 (ip), vehicle: saline
[9] = dose: 100.0 mg/kg/injection, schedule: Q01DX009 (ip), vehicle: saline with Tween-80
[10] = dose: 200.0 mg/kg/injection, schedule: Q01DX009 (ip), vehicle: saline with Tween-80
[11] = dose: 400.0 mg/kg/injection, schedule: Q01DX009 (ip), vehicle: saline with Tween-80
[12] = dose: 100.0 mg/kg/injection, schedule: Q01DX009 (ip), vehicle: Klucel (hydroxypropylcellulose) (HPC)
[13] = dose: 200.0 mg/kg/injection, schedule: Q01DX009 (ip), vehicle: Klucel (hydroxypropylcellulose) (HPC)
[14] = dose: 100.0 mg/kg/injection, schedule: Q04DX003 (ip), vehicle: Klucel (hydroxypropylcellulose) (HPC)
[15] = dose: 200.0 mg/kg/injection, schedule: Q04DX003 (ip), vehicle: Klucel (hydroxypropylcellulose) (HPC)
[16] = dose: 400.0 mg/kg/injection, schedule: Q04DX003 (ip), vehicle: Klucel (hydroxypropylcellulose) (HPC)
[17] = dose: 50.0 mg/kg/injection, schedule: Q01DX001 (ip), vehicle: Klucel (hydroxypropylcellulose) (HPC)
[18] = dose: 100.0 mg/kg/injection, schedule: Q01DX001 (ip), vehicle: Klucel (hydroxypropylcellulose) (HPC)

Measured: T/C

C=C(CC(N)=O)C(=O)O (tested in a mixture with another compound)
inactive: dose: 6.25 mg/kg/injection, schedule: Q01DX009 (ip), vehicle: saline 97 % of control | dose: 12.5 mg/kg/injection, schedule: Q01DX009 (ip), vehicle: saline 100 % of control | dose: 20.0 mg/kg/injection, schedule: Q01DX009 (ip), vehicle: saline 105 % of control | [1] 105 % of control | dose: 35.0 mg/kg/injection, schedule: Q01DX009 (ip), vehicle: saline 94 % of control | [2] 107 % of control | [3] 106 % of control | dose: 65.0 mg/kg/injection, schedule: Q01DX009 (ip), vehicle: saline 102 % of control | [4] 118 % of control | [5] 111 % of control | dose: 125.0 mg/kg/injection, schedule: Q01DX009 (ip), vehicle: saline 119 % of control | dose: 177.0 mg/kg/injection, schedule: Q01DX001 (ip), vehicle: saline 110 % of control | [6] 107 % of control | [7] 111 % of control | dose: 266.0 mg/kg/injection, schedule: Q01DX001 (ip), vehicle: saline 124 % of control | dose: 270.0 mg/kg/injection, schedule: Q01DX001 (ip), vehicle: saline 110 % of control | dose: 270.0 mg/kg/injection, schedule: Q01DX009 (ip), vehicle: saline 120 % of control and 123 % of control | [8] 111 % of control | dose: 400.0 mg/kg/injection, schedule: Q01DX009 (ip), vehicle: saline 101 % of control and 111 % of control and 117 % of control | dose: 600.0 mg/kg/injection, schedule: Q01DX001 (ip), vehicle: saline 114 % of control | dose: 600.0 mg/kg/injection, schedule: Q01DX009 (ip), vehicle: saline 113 % of control | dose: 800.0 mg/kg/injection, schedule: Q01DX001 (ip), vehicle: saline 122 % of control | dose: 1000.0 mg/kg/injection, schedule: Q01DX001 (ip), vehicle: saline 113 % of control

CC(=O)OC1CCC2(COS(=O)(=O)c3ccc(C)cc3)C(=CCC3C2CCC2(C)C(C(C)CCCC(C)C)CCC32)C1 (configuration not stated)
inactive: dose: 100.0 mg/kg/injection, schedule: Q04DX002 (ip), vehicle: steriod suspending solution 101 % of control | dose: 200.0 mg/kg/injection, schedule: Q04DX002 (ip), vehicle: steriod suspending solution 104 % of control | dose: 400.0 mg/kg/injection, schedule: Q04DX002 (ip), vehicle: steriod suspending solution 96 % of control

O=C(COc1ccc(Cl)cc1)Nc1cccc([N+](=O)[O-])c1
inactive: [9] 96 % of control | [10] 92 % of control | [11] 90 % of control

O=C(Nc1cccc([N+](=O)[O-])c1)Nc1ccccc1C(F)(F)F
inactive: [12] 94 % of control | [13] 91 % of control | dose: 400.0 mg/kg/injection, schedule: Q01DX009 (ip), vehicle: Klucel (hydroxypropylcellulose) (HPC) 93 % of control

CC(C)(C)CCCC1C(=O)N(c2ccccc2)N(c2ccccc2)C1=O
inactive: dose: 50.0 mg/kg/injection, schedule: Q01DX009 (ip), vehicle: Klucel (hydroxypropylcellulose) (HPC) 110 % of control | [12] 110 % of control | [14] 106 % of control | [13] 112 % of control | [15] 96 % of control | [16] 101 % of control

CCCCC(CCCCCC(CCCC)C1NC(C)Cc2cc(OC)c(OC)cc21)C1NC(C)Cc2cc(OC)c(OC)cc21 (configuration not stated)
inactive: dose: 25.0 mg/kg/injection, schedule: Q01DX001 (ip), vehicle: Klucel (hydroxypropylcellulose) (HPC) 98 % of control | [17] 105 % of control | [18] 90 % of control and 91 % of control

COC(=O)C(Cl)(Cl)C1(c2ccccc2)OCC(C)(C)N1C(=O)C(Cl)Cl (configuration not stated)
inactive: dose: 100.0 mg/kg/injection, schedule: Q04DX003 (ip), vehicle: saline with Tween-80 115 % of control | dose: 200.0 mg/kg/injection, schedule: Q04DX003 (ip), vehicle: saline with Tween-80 94 % of control | dose: 400.0 mg/kg/injection, schedule: Q04DX003 (ip), vehicle: saline with Tween-80 103 % of control

N#CC1C2CCC(C2)C1CCCN (configuration not stated)
inactive: [1] 108 % of control | dose: 25.0 mg/kg/injection, schedule: Q04DX003 (ip), vehicle: saline 102 % of control | [3] 106 % of control | dose: 50.0 mg/kg/injection, schedule: Q04DX003 (ip), vehicle: saline 95 % of control | [5] 98 % of control | dose: 100.0 mg/kg/injection, schedule: Q04DX003 (ip), vehicle: saline 95 % of control and 115 % of control

O=C(COc1cc(Cl)c(Cl)cc1Cl)Nc1ccc(N=Nc2ccccc2)cc1
inactive: dose: 100.0 mg/kg/injection, schedule: Q04DX002 (ip), vehicle: Klucel (hydroxypropylcellulose) (HPC) 99 % of control | dose: 200.0 mg/kg/injection, schedule: Q04DX002 (ip), vehicle: Klucel (hydroxypropylcellulose) (HPC) 99 % of control | dose: 400.0 mg/kg/injection, schedule: Q04DX002 (ip), vehicle: Klucel (hydroxypropylcellulose) (HPC) 86 % of control

OC(Cc1ccccc1)c1ccccc1 (configuration not stated)
inactive: [2] 100 % of control | [4] 100 % of control | [9] 89 % of control | [6] 93 % of control | [10] 98 % of control | [8] 93 % of control | [11] 95 % of control

CS(=O)(=O)OCCC#N
inactive: [3] 103 % of control | [5] 101 % of control | dose: 100.0 mg/kg/injection, schedule: Q04DX003 (ip), vehicle: alcohol 102 % of control | dose: 200.0 mg/kg/injection, schedule: Q04DX003 (ip), vehicle: alcohol 93 % of control

O=S(=O)(/C=C\c1ccccc1)N(c1ccccc1)c1ccccc1
inactive: [14] 102 % of control | [15] 110 % of control | [16] 96 % of control

O/N=C/C=N/O.O/N=C/C=N/O.[Pd]
inactive: dose: 1.56 mg/kg/injection, schedule: Q01DX009 (ip), vehicle: saline with Tween-80 110 % of control | dose: 3.13 mg/kg/injection, schedule: Q01DX009 (ip), vehicle: saline with Tween-80 97 % of control | dose: 6.25 mg/kg/injection, schedule: Q01DX009 (ip), vehicle: saline with Tween-80 112 % of control

COc1ccc(NC(=O)Oc2c(C(C)C)cccc2C(C)C)cc1
inactive: [14] 100 % of control | [15] 96 % of control | [16] 92 % of control

COC(=O)c1ccc2cc(C(=O)OC)ccc2c1
inactive: dose: 50.0 mg/kg/injection, schedule: Q04DX003 (ip), vehicle: Klucel (hydroxypropylcellulose) (HPC) 105 % of control | [14] 105 % of control | [15] 101 % of control

CCOC(=O)/C=C/C(=O)N(C)c1ccccc1
inactive: dose: 100.0 mg/kg/injection, schedule: Q01DX001 (ip), vehicle: other 100 % of control | dose: 200.0 mg/kg/injection, schedule: Q01DX001 (ip), vehicle: other 100 % of control | dose: 400.0 mg/kg/injection, schedule: Q01DX001 (ip), vehicle: other 108 % of control

CCOC(=O)c1[nH]c(-c2ccccc2)c(/C=N\O)c1-c1ccccc1
inactive: [17] 105 % of control | [18] 100 % of control | dose: 200.0 mg/kg/injection, schedule: Q01DX001 (ip), vehicle: Klucel (hydroxypropylcellulose) (HPC) 93 % of control

CCOC(=O)CCC(N)C(=O)OCC (configuration not stated)
inactive: [4] 95 % of control and 91 % of control | [5] 96 % of control | [6] 91 % of control | [7] 88 % of control | [8] 98 % of control and 86 % of control
